Assays:
[1] = organism: Homo sapiens; test: Selectivity for p38alpha MAP kinase (unknown origin) over EPHA3 (unknown origin)
[2] = organism: Homo sapiens; test: Selectivity for p38alpha MAP kinase (unknown origin) over GRK4 (unknown origin)
[3] = organism: Homo sapiens; test: Selectivity for p38alpha MAP kinase (unknown origin) over PKC-zeta (unknown origin)
[4] = organism: Homo sapiens; test: Selectivity for p38alpha MAP kinase (unknown origin) over MEK1 (unknown origin)
[5] = organism: Homo sapiens; test: Selectivity for p38alpha MAP kinase (unknown origin) over EPHB1 (unknown origin)
[6] = organism: Homo sapiens; test: Selectivity for p38alpha MAP kinase (unknown origin) over IRAK1 (unknown origin)
[7] = organism: Homo sapiens; test: Selectivity for p38alpha MAP kinase (unknown origin) over MET F1200I mutant (unknown origin)
[8] = organism: Homo sapiens; test: Selectivity for p38alpha MAP kinase (unknown origin) over SGK1 (unknown origin)
[9] = organism: Homo sapiens; test: Selectivity for p38alpha MAP kinase (unknown origin) over MET Y1230A mutant (unknown origin)
[10] = organism: Homo sapiens; test: Selectivity for p38alpha MAP kinase (unknown origin) over EGFR G719S mutant (unknown origin)
[11] = organism: Homo sapiens; test: Selectivity for p38alpha MAP kinase (unknown origin) over PASK (unknown origin)
[12] = organism: Homo sapiens; test: Selectivity for p38alpha MAP kinase (unknown origin) over PKC-iota (unknown origin)
[13] = molecular target: Calcium/calmodulin-dependent protein kinase type II subunit delta (Homo sapiens) (UniProt Q13557); test: Inhibition of CAMK2D (unknown origin) at 10 uM
[14] = organism: Homo sapiens; test: Selectivity for p38alpha MAP kinase (unknown origin) over RAF1 Y340D/Y341D double mutant (unknown origin)
[15] = organism: Homo sapiens; test: Selectivity for p38alpha MAP kinase (unknown origin) over DYRK1B (unknown origin)
[16] = organism: Homo sapiens; test: Selectivity for p38alpha MAP kinase (unknown origin) over FER (unknown origin)
[17] = organism: Homo sapiens; test: Selectivity for p38alpha MAP kinase (unknown origin) over VEGF-R3 (unknown origin)
[18] = organism: Homo sapiens; test: Selectivity for p38alpha MAP kinase (unknown origin) over EGFR T790M mutant (unknown origin)
[19] = organism: Homo sapiens; test: Selectivity for p38alpha MAP kinase (unknown origin) over MST2 (unknown origin)
[20] = organism: Homo sapiens; test: Selectivity for p38alpha MAP kinase (unknown origin) over Aurora-B (unknown origin)
[21] = organism: Homo sapiens; test: Selectivity for p38alpha MAP kinase (unknown origin) over CDK1/CycB1 (unknown origin)
[22] = organism: Homo sapiens; test: Selectivity for p38alpha MAP kinase (unknown origin) over ROCK1 (unknown origin)
[23] = organism: Homo sapiens; test: Selectivity for p38alpha MAP kinase (unknown origin) over ABL1 E255K mutant (unknown origin)
[24] = organism: Homo sapiens; test: Selectivity for p38alpha MAP kinase (unknown origin) over INS-R (unknown origin)
[25] = organism: Homo sapiens; test: Selectivity for p38alpha MAP kinase (unknown origin) over CDC42BPB (unknown origin)
[26] = organism: Homo sapiens; test: Selectivity for p38alpha MAP kinase (unknown origin) over SNF1LK2 (unknown origin)
[27] = organism: Homo sapiens; test: Selectivity for p38alpha MAP kinase (unknown origin) over ROCK2 (unknown origin)
[28] = organism: Homo sapiens; test: Selectivity for p38alpha MAP kinase (unknown origin) over TIE2 (unknown origin)
[29] = organism: Homo sapiens; test: Selectivity for p38alpha MAP kinase (unknown origin) over PIM1 (unknown origin)
[30] = organism: Homo sapiens; test: Selectivity for p38alpha MAP kinase (unknown origin) over ARK5 (unknown origin)
[31] = organism: Homo sapiens; test: Selectivity for p38alpha MAP kinase (unknown origin) over JNK3 (unknown origin)
[32] = organism: Homo sapiens; test: Selectivity for p38alpha MAP kinase (unknown origin) over PKC-beta1 (unknown origin)
[33] = organism: Homo sapiens; test: Selectivity for p38alpha MAP kinase (unknown origin) over BMPR1A (unknown origin)
[34] = organism: Homo sapiens; test: Selectivity for p38alpha MAP kinase (unknown origin) over PDGFR-alpha D842V mutant (unknown origin)
[35] = organism: Homo sapiens; test: Selectivity for p38alpha MAP kinase (unknown origin) over JAK3 (unknown origin)
[36] = organism: Homo sapiens; test: Selectivity for p38alpha MAP kinase (unknown origin) over CHK1 (unknown origin)
[37] = organism: Homo sapiens; test: Selectivity for p38alpha MAP kinase (unknown origin) over SNK (unknown origin)
[38] = organism: Homo sapiens; test: Selectivity for p38alpha MAP kinase (unknown origin) over IGF1-R (unknown origin)
[39] = organism: Homo sapiens; test: Selectivity for p38alpha MAP kinase (unknown origin) over wild type FGFR1 (unknown origin)
[40] = organism: Homo sapiens; test: Selectivity for p38alpha MAP kinase (unknown origin) over MEK2 (unknown origin)
[41] = organism: Homo sapiens; test: Selectivity for p38alpha MAP kinase (unknown origin) over MINK1 (unknown origin)
[42] = organism: Homo sapiens; test: Selectivity for p38alpha MAP kinase (unknown origin) over PAK2 (unknown origin)
[43] = organism: Homo sapiens; test: Selectivity for p38alpha MAP kinase (unknown origin) over PCTAIRE1 (unknown origin)
[44] = organism: Homo sapiens; test: Selectivity for p38alpha MAP kinase (unknown origin) over RON (unknown origin)
[45] = organism: Homo sapiens; test: Selectivity for p38alpha MAP kinase (unknown origin) over GRK7 (unknown origin)
[46] = organism: Homo sapiens; test: Selectivity for p38alpha MAP kinase (unknown origin) over DAPK2 (unknown origin)
[47] = organism: Homo sapiens; test: Selectivity for p38alpha MAP kinase (unknown origin) over TEC (unknown origin)
[48] = organism: Homo sapiens; test: Selectivity for p38alpha MAP kinase (unknown origin) over PKC-beta2 (unknown origin)
[49] = molecular target: T1, Mitogen-activated protein kinase 14 (Homo sapiens, UniProt Q16539); test: Competitive inhibition of p38alpha MAP kinase (unknown origin) at 10 uM in presence of 100 uM ATP
[50] = organism: Homo sapiens; test: Selectivity for p38alpha MAP kinase (unknown origin) over LCK (unknown origin)
[51] = organism: Homo sapiens; test: Selectivity for p38alpha MAP kinase (unknown origin) over EGFR G719C mutant (unknown origin)
[52] = organism: Homo sapiens; test: Selectivity for p38alpha MAP kinase (unknown origin) over MET D1228H mutant (unknown origin)
[53] = organism: Homo sapiens; test: Selectivity for p38alpha MAP kinase (unknown origin) over BTK (unknown origin)
[54] = organism: Homo sapiens; test: Selectivity for p38alpha MAP kinase (unknown origin) over TTK (unknown origin)
[55] = organism: Homo sapiens; test: Selectivity for p38alpha MAP kinase (unknown origin) over VEGF-R1 (unknown origin)
[56] = organism: Homo sapiens; test: Selectivity for p38alpha MAP kinase (unknown origin) over NEK2 (unknown origin)
[57] = organism: Homo sapiens; test: Selectivity for p38alpha MAP kinase (unknown origin) over FGF-R2 (unknown origin)
[58] = organism: Homo sapiens; test: Selectivity for p38alpha MAP kinase (unknown origin) over PDGFR-alpha V561D mutant (unknown origin)
[59] = organism: Homo sapiens; test: Selectivity for p38alpha MAP kinase (unknown origin) over RET V804L mutant (unknown origin)
[60] = molecular target: T1, Mitogen-activated protein kinase 14; test: Competitive inhibition of p38alpha MAP kinase (unknown origin) in presence of 300 uM ATP
[61] = organism: Homo sapiens; test: Selectivity for p38alpha MAP kinase (unknown origin) over CLK1 (unknown origin)
[62] = organism: Homo sapiens; test: Selectivity for p38alpha MAP kinase (unknown origin) over PDGFR-beta (unknown origin)

T1 sequence (Q16539 whole entry): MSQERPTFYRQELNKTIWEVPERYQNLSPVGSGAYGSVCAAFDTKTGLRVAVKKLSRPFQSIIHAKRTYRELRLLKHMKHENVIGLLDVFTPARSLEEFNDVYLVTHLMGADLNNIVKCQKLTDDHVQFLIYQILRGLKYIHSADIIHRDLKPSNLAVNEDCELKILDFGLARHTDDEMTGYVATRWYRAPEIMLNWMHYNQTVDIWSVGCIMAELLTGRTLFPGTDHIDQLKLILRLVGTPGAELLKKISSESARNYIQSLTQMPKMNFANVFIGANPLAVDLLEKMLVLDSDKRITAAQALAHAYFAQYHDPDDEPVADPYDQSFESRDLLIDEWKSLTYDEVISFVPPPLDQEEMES
Sequence of Calcium/calmodulin-dependent protein kinase type II subunit delta (Homo sapiens) (Q13557 whole entry): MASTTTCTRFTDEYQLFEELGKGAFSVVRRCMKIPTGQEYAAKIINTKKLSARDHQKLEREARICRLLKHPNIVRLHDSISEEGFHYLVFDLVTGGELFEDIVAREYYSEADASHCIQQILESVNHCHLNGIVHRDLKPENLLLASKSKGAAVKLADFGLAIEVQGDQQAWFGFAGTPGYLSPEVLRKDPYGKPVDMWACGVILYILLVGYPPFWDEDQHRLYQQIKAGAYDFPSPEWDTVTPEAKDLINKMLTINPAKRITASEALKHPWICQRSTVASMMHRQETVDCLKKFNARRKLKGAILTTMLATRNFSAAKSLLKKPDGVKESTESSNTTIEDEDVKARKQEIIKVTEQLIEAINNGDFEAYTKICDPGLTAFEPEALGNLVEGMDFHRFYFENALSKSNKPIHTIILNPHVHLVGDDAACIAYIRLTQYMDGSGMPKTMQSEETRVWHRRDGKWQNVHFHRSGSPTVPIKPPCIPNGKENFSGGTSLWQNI

Selectivity ratio [1]: > 1000 | Selectivity ratio [2]: > 1000 | Selectivity ratio [3]: > 1000 | Selectivity ratio [4]: > 1000 | Selectivity ratio [5]: > 1000 | Selectivity ratio [6]: > 1000 | Selectivity ratio [7]: > 1000 | Selectivity ratio [8]: > 1000 | Selectivity ratio [9]: > 1000 | Selectivity ratio [10]: > 1000 | Selectivity ratio [11]: > 1000 | Selectivity ratio [12]: > 1000 | inhibition [13]: > 50% | Selectivity ratio [14]: > 1000 | Selectivity ratio [15]: > 1000 | Selectivity ratio [16]: > 1000 | Selectivity ratio [17]: > 1000 | Selectivity ratio [18]: > 1000 | Selectivity ratio [19]: > 1000 | Selectivity ratio [20]: > 1000 | Selectivity ratio [21]: > 1000 | Selectivity ratio [22]: > 1000 | Selectivity ratio [23]: > 1000 | Selectivity ratio [24]: > 1000 | Selectivity ratio [25]: > 1000 | Selectivity ratio [26]: > 1000 | Selectivity ratio [27]: > 1000 | Selectivity ratio [28]: > 1000 | Selectivity ratio [29]: > 1000 | Selectivity ratio [30]: > 1000 | Selectivity ratio [31]: > 1000 | Selectivity ratio [32]: > 1000 | Selectivity ratio [33]: > 1000 | Selectivity ratio [34]: > 1000 | Selectivity ratio [35]: > 1000 | Selectivity ratio [36]: > 1000 | Selectivity ratio [37]: > 1000 | Selectivity ratio [38]: > 1000 | Selectivity ratio [39]: > 1000 | Selectivity ratio [40]: > 1000 | Selectivity ratio [41]: > 1000 | Selectivity ratio [42]: > 1000 | Selectivity ratio [43]: > 1000 | Selectivity ratio [44]: > 1000 | Selectivity ratio [45]: > 1000 | Selectivity ratio [46]: > 1000 | Selectivity ratio [47]: > 1000 | Selectivity ratio [48]: > 1000 | inhibition [49]: > 50% | Selectivity ratio [50]: > 1000 | Selectivity ratio [51]: > 1000 | Selectivity ratio [52]: > 1000 | Selectivity ratio [53]: > 1000 | Selectivity ratio [54]: > 1000 | Selectivity ratio [55]: > 1000 | Selectivity ratio [56]: > 1000 | Selectivity ratio [57]: > 1000 | Selectivity ratio [58]: > 1000 | Selectivity ratio [59]: > 1000 | IC50 [60]: 4 nM | Selectivity ratio [61]: > 1000 | Selectivity ratio [62]: > 1000
SMILES: Cc1cc(F)c(NC(=O)c2ccsc2)cc1Nc1ccc2c(c1)OCc1ccc(OC[C@H](O)CO)cc1C2=O

— ChEMBL document CHEMBL3085714 (J Med Chem, 2013)
